Laboratory results from ChEMBL document CHEMBL5608255, “Inhibitors of the Cyclic GMP-AMP Synthase (cGAS) as Potential Treatment for Autoimmune and Inflammatory Diseases” (ACS Med Chem Lett, 2024).

Key:
Cyclic GMP-AMP synthase [1] = molecular target: T1, Cyclic GMP-AMP synthase (Homo sapiens, UniProt Q8N884); test: Inhibition of cGAS in dsDNA stimulated human Whole blood cell by measuring IFNalpha-2a production incubated for 60 mins followed by addition of double stranded DNA measured after 1350 mins by microplate reader assay; format: tissue-based
T1 sequence (Q8N884 whole entry): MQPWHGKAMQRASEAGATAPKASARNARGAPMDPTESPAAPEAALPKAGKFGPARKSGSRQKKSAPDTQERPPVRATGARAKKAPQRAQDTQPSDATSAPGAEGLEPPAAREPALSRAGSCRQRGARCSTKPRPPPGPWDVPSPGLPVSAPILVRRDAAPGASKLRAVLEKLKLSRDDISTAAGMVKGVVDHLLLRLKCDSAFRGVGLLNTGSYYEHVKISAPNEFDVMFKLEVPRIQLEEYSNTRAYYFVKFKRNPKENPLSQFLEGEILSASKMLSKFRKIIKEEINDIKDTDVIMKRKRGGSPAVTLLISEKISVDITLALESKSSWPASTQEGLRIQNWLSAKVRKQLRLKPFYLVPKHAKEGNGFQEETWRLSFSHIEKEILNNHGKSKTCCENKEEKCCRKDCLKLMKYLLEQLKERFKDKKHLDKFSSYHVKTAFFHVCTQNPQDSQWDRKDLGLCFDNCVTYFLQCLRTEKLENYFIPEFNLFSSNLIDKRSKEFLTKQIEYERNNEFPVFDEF

Cyclic GMP-AMP synthase [2] = molecular target: T1, Cyclic GMP-AMP synthase; test: Ratio of IC50 for inhibition of cGAS in human THP-1 cells using cGAMP as substrate to IC50 for inhibition of cGAS in human THP-1 cells expressed in baculovirus infected insect cells
Cyclic GMP-AMP synthase [3] = molecular target: T1, Cyclic GMP-AMP synthase; test: Inhibition of cGAS in human THP-1 cells expressed in baculovirus infected insect cells incubated for 18 hrs by Lucia luciferase reporter assay
Cyclic GMP-AMP synthase [4] = molecular target: T1, Cyclic GMP-AMP synthase; test: Inhibition of N-terminal 6His-SUMO tagged human cGAS (1 to 522 residues) extracted from Escherichia coli BL21(DE3)pLysS cells using GTP/ATP as substrate by measuring cGAMP production incubated for 90 mins in presence of 45 base pair DNA by mass spectrometric analysis

IC50 (Cyclic GMP-AMP synthase [1]) [nM] | Ratio IC50 (Cyclic GMP-AMP synthase [2]) | IC50 (Cyclic GMP-AMP synthase [3]) [nM] | IC50 (Cyclic GMP-AMP synthase [4]) [nM] | SMILES
17 | 3930 | 2.4 | – | C[C@H]1CN2CC[C@@H]1n1c(nc3cc(Cl)ccc31)O[C@H]1C[C@@H](C(=O)O)N(C1)c1nc(nc3c1oc1cc(Cl)ccc13)CCOCCCC2=O
439 | 45 | 180 | – | C[C@@H]1CN2CC[C@H]1n1c(nc3ccccc31)O[C@H]1C[C@@H](C(=O)O)N(C1)c1nc(nc3c1oc1ccccc13)CCCCCOC2=O
87 | > 253 | 39 | – | C[C@@H]1CN2CC[C@H]1n1c(nc3cc(Cl)ccc31)O[C@H]1C[C@@H](C(=O)O)N(C1)c1nc(nc3c1oc1ccccc13)CCOCCCC2=O
8 | 519 | 13 | – | C[C@H]1CN2CC[C@@H]1n1c(nc3ccccc31)O[C@H]1C[C@@H](C(=O)O)N(C1)c1nc(nc3c1oc1ccccc13)C(F)(F)CCCCC(F)(F)C2=O
1580 | 33 | 180 | – | Cc1cccc2c1nc1n2[C@@H]2CCN(C[C@H]2C)C(=O)CCCCCC(F)(F)c2nc(c3oc4ccccc4c3n2)N2C[C@H](C[C@H]2C(=O)O)O1
3 | > 2220 | 3.1 | – | C[C@H]1CN2CC[C@@H]1n1c(nc3cc(Cl)ccc31)O[C@H]1C[C@@H](C(=O)O)N(C1)c1nc(nc3c1oc1ccccc13)C(F)(F)OCCCCC2=O
5 | > 3560 | 2.8 | 2.8 | CC(=O)[C@@H]1C[C@H]2CN1c1nc(nc3c1oc1ccccc13)CCOCCCC(=O)N1CC[C@@H]([C@@H](C)C1)n1c(nc3cc(Cl)ccc31)O2
4 | > 6580 | 1.5 | – | C[C@H]1CN2CC[C@@H]1n1c(nc3ccccc31)O[C@H]1C[C@@H](C(=O)O)N(C1)c1nc(nc3c1oc1cc(Cl)ccc13)C(F)(F)CCCOCC2=O
1 | 32100 | 0.44 | 2.1 | C[C@H]1CN2CC[C@H]1n1c(nc3ccccc31)O[C@H]1C[C@@H](C(=O)O)N(C1)c1nc(nc3c1oc1ccccc13)C(F)(F)COCCCCC2=O
186 | 15 | 500 | – | C[C@H]1CN2CC[C@@H]1n1c(nc3ccccc31)O[C@H]1C[C@@H](C(=O)O)N(C1)c1nc(nc3c1oc1ccccc13)CCCCCN(C)C2=O
